pIC50, pKi: −log10 of the molar value. Where two headings read alike, the source gives them in different places.
What was measured:
5-HT6R [1] = biological target: T1, 5-HT6R (Homo sapiens, UniProt P50406); test: [3H]-LSD radioligand binding assay, HEK293 cells stably expressing human 5-HT6R; design: expressed in transfected cells; details: mean of three independent experiments
Experimental: Final compounds were evaluated in the [^3H]-LSD binding assay using HEK293 cells with stable expression of human 5-HT6R. […] Because the fluorine atom might affect the affinity at target protein as well as physicochemical and pharmacokinetic properties of compound,[22] fluorine substitution at the 2-phenyl ring was applied. […] The analysis of the binding mode of 18 and 28 (Figure 2A) confirmed that the 2-phenyl moiety is placed in the hydrophobic cavity between transmembrane domains (TMs) 4–6.
(§1) All experiments were carried out according to the previously published procedures.[41]−[43] HEK293 cells stably expressing human 5-HT1A, 5-HT6, 5-HT7b, and D2L receptors (prepared with the use of Lipofectamine 2000) or CHO-K1 cells with plasmid containing the sequence coding for the human serotonin 5-HT2A receptor (PerkinElmer) were maintained at 37 °C in a humidified atmosphere containing 5% CO2 and grown in Dulbecco’s modified Eagle’s medium containing 10% dialyzed fetal bovine serum and 500 μg/mL G418 sulfate. For membrane preparation, cells were cultured in 150 cm^2 flasks, grown to 90% confluence, washed twice with prewarmed to 37 °C phosphate buffered saline (PBS), and centrifuged (200g) in PBS containing 0.1 mM EDTA and 1 mM dithiothreitol. Prior to membrane preparation, pellets were stored at −80 °C. Cell pellets were thawed and homogenized in 10 volumes of assay buffer using an Ultra Turrax tissue homogenizer and centrifuged twice at 35 000g for 15 min at 4 °C, with incubation for 15 min at 37 °C between the centrifugations. The composition of the assay buffers was experimentally selected to achieve the maximum signal window (more details in Supporting Information). All assays were carried out in a total volume of 200 μL in 96-well plates for 1 h at 37 °C except 5-HT1AR and 5-HT2AR which were incubated at room temperature and 27 °C, respectively. The process of equilibration was terminated by rapid filtration through Unifilter plates with a 96-well cell harvester, and radioactivity retained on the filters was quantified on a Microbeta plate reader (PerkinElmer, USA). For displacement studies the assay samples contained the following as radioligands (PerkinElmer, USA): 2.5 nM [^3H]-8-OH-DPAT (135.2 Ci/mmol) for 5-HT1AR; 1 nM [^3H]-ketanserin (53.4 Ci/mmol) for 5-HT2AR; 2 nM [^3H]-LSD (83.6 Ci/mmol) for 5-HT6R; 0.8 nM [^3H]-5-CT (39.2 Ci/mmol) for 5-HT7R or 2.5 nM [^3H]-raclopride (76.0 Ci/mmol) for D2LR. Nonspecific binding was defined in the presence of 10 μM 5-HT in 5-HT1AR and 5-HT7R binding experiments, whereas 20 μM mianserin, 10 μM methiothepine, and 10 μM haloperidol were used in 5-HT2AR, 5-HT6R, and D2LR assays, respectively. Each compound was tested in triplicate at seven concentrations (10^–10–10^–4 M). The inhibition constants (Ki) were calculated from the Cheng–Prusoff equation.[44]

5-HT6R [2] = biological target: T1, 5-HT6R; design: expressed in transfected cells; details: cited from earlier work
5-HT1AR = biological target: T2, 5-HT1AR (Homo sapiens, UniProt P08908); test: [3H]-8-OH-DPAT radioligand binding assay, HEK293 cells; details: mean of three experiments
T2 construct: expressed in transfected cells
T2 sequence (P08908 1-422): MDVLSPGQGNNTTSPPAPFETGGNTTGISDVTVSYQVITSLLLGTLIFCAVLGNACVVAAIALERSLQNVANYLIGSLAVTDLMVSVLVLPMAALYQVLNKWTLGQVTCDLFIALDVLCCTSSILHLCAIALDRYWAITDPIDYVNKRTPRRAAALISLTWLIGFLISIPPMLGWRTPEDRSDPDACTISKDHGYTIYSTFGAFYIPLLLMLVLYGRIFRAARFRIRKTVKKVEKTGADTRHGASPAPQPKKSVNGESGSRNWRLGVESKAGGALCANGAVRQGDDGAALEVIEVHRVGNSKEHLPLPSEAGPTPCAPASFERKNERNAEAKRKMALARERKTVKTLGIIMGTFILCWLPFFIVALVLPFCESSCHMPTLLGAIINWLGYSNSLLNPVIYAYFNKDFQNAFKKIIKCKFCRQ
Experimental: as §1

5-HT2AR = biological target: T3, 5-HT2AR (Homo sapiens, UniProt P28223); test: [3H]-ketanserin radioligand binding assay, CHO-K1 cells; details: mean of three experiments
T3 construct: host or cells: CHO-K1

5-HT7R = biological target: T4, 5-HT7R (Homo sapiens, UniProt P34969); test: [3H]-5-CT radioligand binding assay, HEK293 cells; details: mean of three experiments
T4 construct: expressed in transfected cells
Experimental: as §1

D2R = biological target: T5, D2R (Homo sapiens, UniProt P14416); test: [3H]-raclopride radioligand binding assay, HEK293 cells; details: mean of three experiments
T5 construct: expressed in transfected cells
Experimental: as §1

5-HT6R [3] = biological target: T1, 5-HT6R; test: Inhibition of 5-CT-stimulated cAMP production in 1321N1 cells; format: cell-based; design: expressed in transfected cells; details: antagonism of 5-CT (1000 nM)-stimulated cAMP
Experimental: The effect of compounds 18, 22, 27, and 28 on adenylate cyclase was examined in 1321N1 cells expressing the 5-HT6R.
The properties of compounds 18, 22, 27, 28 to inhibit cAMP production induced by 5-CT (1000 nM), a 5-HT6R agonist, were evaluated. Compounds were tested in triplicate at eight concentrations (10^–11–10^–4 M). The level of cAMP was measured using frozen recombinant 1321N1 cells expressing the human serotonin 5-HT6R (PerkinElmer). Total cAMP was measured using the LANCE cAMP detection kit (PerkinElmer), according to the manufacturer’s recommendations. For quantification of cAMP levels, 2000 cells/well (5 μL) were incubated with a mixture of compounds (5 μL) for 30 min at room temperature in 384-well white opaque microtiter plate. After incubation, the reaction was stopped and cells were lysed by the addition of 10 μL of working solution (5 μL of Eu-cAMP and 5 μL of ULight-anti-cAMP) for 1 h at room temperature. Time-resolved fluorescence resonance energy transfer (TR-FRET) was detected by an Infinite M1000 Pro (Tecan) using instrument settings from LANCE cAMP detection kit manual. Kb values were calculated from Cheng–Prusoff equation specific for the analysis of functional inhibition curves: Kb = IC50/(1 + A/EC50) where A represents agonist concentration, IC50 the concentration of antagonist producing a 50% reduction in the response to agonist, and EC50 the agonist concentration which causes a half of the maximal response.[44]

5-HT6R [4] = biological target: T1, 5-HT6R; test: Basal cAMP production (constitutive Gs signaling) in NG108-15 cells transiently expressing 5-HT6R, CAMYEL BRET; format: cell-based; design: expressed in transfected cells; host or cells: NG108-15 (transient, Lipofectamine 2000, cotransfected with the CAMYEL sensor); details: for functional profile: 5-HT6R-dependent Gs signaling, NG108-15 cells; for pIC50: decrease of basal cAMP, NG108-15 cells transiently expressing 5-HT6R
Experimental: NG108-15 cells were grown in Dulbecco’s modified Eagle’s medium (DMEM) supplemented with 10% dialyzed fetal calf serum, 2% hypoxanthine/aminopterin/thymidine (Life Technologies), and antibiotics. cAMP measurement was performed in cells transiently expressing 5-HT6R using the bioluminescence resonance energy transfer (BRET) sensor for cAMP, CAMYEL (cAMP sensor using YFP-Epac-RLuc).[45] NG108-15 cells were cotransfected in suspension with 5-HT6R (0.5 μg DNA/million cells) and CAMYEL constructs (1 μg DNA/million cells), using Lipofectamine 2000 according to the manufacturer’s protocol, and plated in white 96-well plates (Greiner) at a density of 50 000 cells per well. […] Coelanterazine H (Molecular Probes) was added at a final concentration of 5 μM and left at room temperature for 5 min. BRET was measured using a Mithras LB 940 plate reader (Berthold Technologies).

T1 sequence (P50406 whole entry, the tested form may be a part): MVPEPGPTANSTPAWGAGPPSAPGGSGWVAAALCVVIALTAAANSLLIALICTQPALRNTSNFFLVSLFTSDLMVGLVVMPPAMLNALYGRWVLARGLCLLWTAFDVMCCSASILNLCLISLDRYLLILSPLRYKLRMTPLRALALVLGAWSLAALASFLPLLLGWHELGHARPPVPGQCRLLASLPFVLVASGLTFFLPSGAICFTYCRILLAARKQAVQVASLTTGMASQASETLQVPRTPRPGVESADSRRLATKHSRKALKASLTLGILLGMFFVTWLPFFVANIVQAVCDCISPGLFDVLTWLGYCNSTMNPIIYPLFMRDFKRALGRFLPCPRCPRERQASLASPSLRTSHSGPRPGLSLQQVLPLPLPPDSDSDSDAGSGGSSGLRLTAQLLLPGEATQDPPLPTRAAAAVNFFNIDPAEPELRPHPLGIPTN
T4 sequence (P34969 1-432): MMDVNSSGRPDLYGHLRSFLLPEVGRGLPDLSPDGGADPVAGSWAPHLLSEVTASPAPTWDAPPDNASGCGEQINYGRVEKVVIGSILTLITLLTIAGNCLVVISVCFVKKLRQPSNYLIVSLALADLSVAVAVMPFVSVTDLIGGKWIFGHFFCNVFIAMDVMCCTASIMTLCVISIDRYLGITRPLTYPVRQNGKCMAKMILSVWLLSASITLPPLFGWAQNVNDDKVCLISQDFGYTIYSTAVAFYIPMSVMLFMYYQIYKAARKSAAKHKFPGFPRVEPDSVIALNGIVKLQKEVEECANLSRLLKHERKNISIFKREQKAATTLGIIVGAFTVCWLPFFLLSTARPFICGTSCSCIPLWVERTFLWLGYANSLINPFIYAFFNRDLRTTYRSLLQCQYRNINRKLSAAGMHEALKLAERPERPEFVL
T5 sequence (P14416 whole entry): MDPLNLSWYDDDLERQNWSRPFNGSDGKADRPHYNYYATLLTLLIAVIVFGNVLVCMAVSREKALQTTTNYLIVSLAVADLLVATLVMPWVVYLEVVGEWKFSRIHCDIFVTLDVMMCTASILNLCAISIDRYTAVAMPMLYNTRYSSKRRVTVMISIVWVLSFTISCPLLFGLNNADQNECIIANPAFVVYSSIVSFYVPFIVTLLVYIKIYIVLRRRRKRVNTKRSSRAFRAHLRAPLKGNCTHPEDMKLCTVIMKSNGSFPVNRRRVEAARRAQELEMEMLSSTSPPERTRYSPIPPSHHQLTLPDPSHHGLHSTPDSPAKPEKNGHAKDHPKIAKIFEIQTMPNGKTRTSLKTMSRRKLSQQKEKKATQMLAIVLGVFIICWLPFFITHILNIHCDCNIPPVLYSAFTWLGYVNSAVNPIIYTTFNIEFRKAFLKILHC
T3 sequence (P28223 whole entry): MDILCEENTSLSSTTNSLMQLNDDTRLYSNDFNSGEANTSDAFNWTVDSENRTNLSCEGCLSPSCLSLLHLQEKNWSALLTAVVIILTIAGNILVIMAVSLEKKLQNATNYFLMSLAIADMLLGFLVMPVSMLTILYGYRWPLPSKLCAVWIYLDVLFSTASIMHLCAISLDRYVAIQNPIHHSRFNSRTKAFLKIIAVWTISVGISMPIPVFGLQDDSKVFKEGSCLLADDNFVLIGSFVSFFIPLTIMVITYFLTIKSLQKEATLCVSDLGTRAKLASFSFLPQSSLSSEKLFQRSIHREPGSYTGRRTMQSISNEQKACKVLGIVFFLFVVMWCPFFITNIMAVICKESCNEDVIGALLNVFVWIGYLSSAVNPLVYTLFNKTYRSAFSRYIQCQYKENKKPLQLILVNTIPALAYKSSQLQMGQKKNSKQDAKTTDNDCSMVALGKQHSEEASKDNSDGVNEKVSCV

Compound	pKi (5-HT6R [1])	also measured
O=C(N[C@H]1CCNC1)c1ccn(S(=O)(=O)c2ccccc2)c1-c1ccccc1 [Compound 8]	6.97	
O=S(=O)(c1ccccc1)n1ccc2c(NC3CCNC3)nc3ccccc3c21 (stereo not drawn) [I]		pKi (5-HT6R [2]): 8.00
O=C(N[C@H]1CCNC1)c1ccn(S(=O)(=O)c2cccc(Cl)c2)c1-c1ccccc1 [Compound 18, (S)-2-Phenyl-1-[(3-chlorophenyl)sulfonyl]-N-(pyrrolidin-3-yl)-1H-pyrrole-3-carboxamide]	7.60	pKi (5-HT1AR): 5.86; pKi (5-HT2AR): 4.84; pKi (5-HT7R): 4.18; pKi (D2R): 5.16; Kb (5-HT6R [3]): 35 nM; functional profile (5-HT6R [4]): inverse agonist; pIC50 (5-HT6R [4]): 6.77
O=C(N[C@H]1CCNC1)c1ccn(S(=O)(=O)c2cccc(Cl)c2)c1-c1cccc(F)c1 [Compound 22, (S)-2-(3-Fluorophenyl)-1-[(3-chlorophenyl)sulfonyl)-N-(pyrrolidin-3-yl)-1H-pyrrole-3-carboxamide]	7.55	pKi (5-HT1AR): 4.18; pKi (5-HT2AR): 4.82; pKi (5-HT7R): 5.15; pKi (D2R): 5.18; Kb (5-HT6R [3]): 6 nM; functional profile (5-HT6R [4]): inverse agonist; pIC50 (5-HT6R [4]): 6.51
Cc1ccccc1S(=O)(=O)n1ccc(C(=O)N[C@@H]2CCNC2)c1-c1ccccc1 [Compound 9]	6.49	
O=C(N[C@@H]1CCNC1)c1ccn(S(=O)(=O)c2cccc(OC(F)(F)F)c2)c1-c1ccccc1 [Compound 15]	7.28	
O=C(N[C@H]1CCNC1)c1ccn(S(=O)(=O)c2cccc(C(F)(F)F)c2)c1-c1ccccc1 [Compound 14]	7.42	
O=C(N[C@@H]1CCNC1)c1ccn(S(=O)(=O)c2ccccc2Cl)c1-c1ccccc1 [Compound 10]	6.75	
O=C(N[C@@H]1CCNC1)c1ccn(S(=O)(=O)c2cccc(F)c2)c1-c1ccccc1 [Compound 12]	7.06	
O=C(N[C@H]1CCNC1)c1ccn(S(=O)(=O)c2cccc(OC(F)(F)F)c2)c1-c1ccccc1 [Compound 16]	7.51	
O=C(N[C@@H]1CCNC1)c1ccn(S(=O)(=O)c2cccc(C(F)(F)F)c2)c1-c1ccccc1 [Compound 13]	6.80	
O=C(N[C@H]1CCNC1)c1ccn(S(=O)(=O)c2cccs2)c1-c1ccccc1 [Compound 19]	6.79	
O=C(N[C@@H]1CCNC1)c1ccn(S(=O)(=O)c2cccc(Cl)c2)c1-c1ccccc1 [Compound 17]	7.46	
O=C(N[C@@H]1CCNC1)c1ccn(S(=O)(=O)c2ccccc2)c1-c1ccccc1 [Compound 7]	6.68	
Cc1cccc(S(=O)(=O)n2ccc(C(=O)N[C@@H]3CCNC3)c2-c2ccccc2)c1 [Compound 11]	7.02	

Further lines, with some results ahead:

pKi (5-HT6R [1])	Compound	also measured
5.59	O=C(N[C@@H]1CCNC1)c1ccn(S(=O)(=O)c2ccc(F)cc2)c1-c1ccc(F)cc1 [Compound 29]	
5.92	O=C(N[C@H]1CCNC1)c1ccn(S(=O)(=O)c2cccc3cccnc23)c1-c1ccc(F)cc1 [Compound 32]	
6.07	O=C(N[C@@H]1CCNC1)c1ccn(S(=O)(=O)c2ccc(F)cc2)c1-c1cccc(F)c1 [Compound 23]	
5.83	Cn1cc(S(=O)(=O)n2ccc(C(=O)N[C@H]3CCNC3)c2-c2ccccc2)cn1 [Compound 20]	
6.20	O=C(N[C@H]1CCNC1)c1ccn(S(=O)(=O)c2ccc(F)cc2)c1-c1ccc(F)cc1 [Compound 30]	
6.41	O=C(N[C@H]1CCNC1)c1ccn(S(=O)(=O)c2cccc3ccccc23)c1-c1ccc(F)cc1 [Compound 31]	
6.46	COc1cccc(S(=O)(=O)n2ccc(C(=O)N[C@@H]3CCNC3)c2-c2ccc(F)cc2)c1 [Compound 25]	
7.01	O=C(N[C@@H]1CCNC1)c1ccn(S(=O)(=O)c2cccc(Cl)c2)c1-c1cccc(F)c1 [Compound 21]	
7.25	O=C(N[C@@H]1CCNC1)c1ccn(S(=O)(=O)c2cccc(F)c2)c1-c1ccc(F)cc1 [Compound 26]	
6.99	O=C(N[C@@H]1CCNC1)c1ccn(S(=O)(=O)c2ccccc2)c1-c1ccc(F)cc1 [Compound 24]	
